Like-named read-outs stand apart in the source and are kept apart here.
With C[C@@H]1C/C=C\CCC(OCc2ccccc2)(C(F)(F)F)C2=NN=C(O2)c2nc(c(C(F)(F)F)cc2NC(=O)OC(C)(C)C)O1 (stereo partly drawn) the ring closure, isolated yield (from C[C@H](CC[P+](c1ccccc1)(c1ccccc1)c1ccccc1)Oc1nc(-c2nnc(C(CCC=O)(OCc3ccccc3)C(F)(F)F)o2)c(N(C(=O)OC(C)(C)C)C(=O)OC(C)(C)C)cc1C(F)(F)F, other bond, 14-membered ring, NaOtBu, THF, 11.2 mM) was 50%.

C[C@H]1CCCCC[C@](O)(C(F)(F)F)C(=O)NNC(=O)c2nc(c(C(F)(F)F)cc2NC(=O)OC(C)(C)C)O1 gave a ring closure, isolated yield (from C[C@@H](CCCCC[C@@](O)(C(=O)O)C(F)(F)F)Oc1nc(C(=O)NN)c(NC(=O)OC(C)(C)C)cc1C(F)(F)F, amide bond, 15-membered ring, HATU/DIEA, DMF (DIEA added in 2-MeTHF), 21.9 mM) of 15%.

Work on “tert-Butyl ((4R,10R)-10-(benzyloxy)-4-methyl-25,10-bis(trifluoromethyl)-3-oxa-1(2,5)-oxadiazola-2(2,6)-pyridinacyclodecaphane-23-yl)carbamate” yielded a ring closure, isolated yield (ether bond, 14-membered ring, PPh3/DIAD, toluene, 30.2 mM) of 52%.

— US20250320226
